Laboratory results published in ChEMBL document CHEMBL3769318, “The Rational Design of Selective Benzoxazepin Inhibitors of the α-Isoform of Phosphoinositide 3-Kinase Culminating in the Identification of (S)-2-((2-(1-Isopropyl-1H-1,2,4-triazol-5-yl)-5,6-dihydrobenzo[f]imidazo[1,2-d][1,4]oxazepin-9-yl)oxy)propanamide (GDC-0326)” (J Med Chem, 2016).

Tests used:
[1] = biological target: Phosphatidylinositol 4,5-bisphosphate 3-kinase catalytic subunit alpha isoform (Homo sapiens, UniProt P42336); assay: Inhibition of recombinant PI3K alpha (unknown origin) using PIP2 as substrate by fluorescence polarization assay; conditions: read-out: Ki(app)
[2] = Antiproliferative activity against human MCF7-neo/Her2 cells after 3 days by luminescence plate reader method; assay type: functional, cell-based; conditions: 72 h
[3] = Antiproliferative activity against human PC3 cells after 4 days by luminescence plate reader method; assay type: functional, cell-based; conditions: PC-3, 96 h
[4] = Clearance in Sprague-Dawley rat at 1 mg/kg, iv; assay type: ADME, organism-based; conditions: in vivo

Sequence of Phosphatidylinositol 4,5-bisphosphate 3-kinase catalytic subunit alpha isoform (P42336 whole entry, canonical isoform): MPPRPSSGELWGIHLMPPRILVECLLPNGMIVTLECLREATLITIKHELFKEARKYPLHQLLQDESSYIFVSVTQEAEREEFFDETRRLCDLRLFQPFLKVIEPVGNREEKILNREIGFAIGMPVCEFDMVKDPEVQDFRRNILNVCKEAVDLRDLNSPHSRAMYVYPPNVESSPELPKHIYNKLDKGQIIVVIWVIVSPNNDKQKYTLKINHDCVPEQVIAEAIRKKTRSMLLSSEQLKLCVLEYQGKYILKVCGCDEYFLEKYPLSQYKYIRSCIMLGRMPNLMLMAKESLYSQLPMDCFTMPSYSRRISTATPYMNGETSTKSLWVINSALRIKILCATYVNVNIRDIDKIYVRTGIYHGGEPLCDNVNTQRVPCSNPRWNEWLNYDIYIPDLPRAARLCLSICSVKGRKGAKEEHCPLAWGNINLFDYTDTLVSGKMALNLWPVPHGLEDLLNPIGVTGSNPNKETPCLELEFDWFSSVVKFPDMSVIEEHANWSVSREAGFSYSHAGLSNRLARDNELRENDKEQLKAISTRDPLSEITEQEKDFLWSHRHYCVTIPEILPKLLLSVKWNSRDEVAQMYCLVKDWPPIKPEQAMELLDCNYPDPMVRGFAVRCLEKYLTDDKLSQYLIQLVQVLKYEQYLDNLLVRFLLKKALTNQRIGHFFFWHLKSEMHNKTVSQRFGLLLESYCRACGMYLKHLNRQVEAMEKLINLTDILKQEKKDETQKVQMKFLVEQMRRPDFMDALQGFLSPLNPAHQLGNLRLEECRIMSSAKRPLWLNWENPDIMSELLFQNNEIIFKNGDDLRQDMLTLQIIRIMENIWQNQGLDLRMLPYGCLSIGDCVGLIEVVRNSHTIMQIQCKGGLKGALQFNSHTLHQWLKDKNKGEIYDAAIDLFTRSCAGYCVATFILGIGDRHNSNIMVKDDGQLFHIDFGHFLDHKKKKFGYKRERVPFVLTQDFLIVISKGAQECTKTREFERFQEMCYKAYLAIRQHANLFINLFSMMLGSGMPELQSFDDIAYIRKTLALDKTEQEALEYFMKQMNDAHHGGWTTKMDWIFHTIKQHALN

Row | Ki [1] [nM] | clearance [4] [mL/min/kg] | Compound | EC50 [2] [nM] | EC50 [3] [nM]
1 | 30 |  | CNC(=O)[C@@H]1CCCN1c1cc2c(cn1)-c1nc(-c3ncnn3C(C)C)cn1CCO2 |  | 
2 | 0.1 |  | CC(C)n1ncnc1-c1cn2c(n1)-c1ccc(N3CC[C@H]3C(N)=O)cc1OCC2 | 50 | 230
3 | 1 | 62 | CC(C)n1ncnc1-c1cn2c(n1)-c1cnc(O[C@@H](C)C(N)=O)cc1OCC2 |  | 
